Laboratory results taken from patent US12601742B2, “Methods and materials for treating endometrial cancer by assessing combinations of mutations and expression levels” (Mayo Foundation for Medical Education and Research, priority 2020, dated 2026).

Assays:
[1] = system: ARK-2 cell line; assay: MTT cell viability assay and synergy assessment, ARK-2; assay type: cell-based; details: constant ratio, 72 hours; for combinatory effect of carboplatin with GSK2141795 (cell viability): ARK-2, simultaneous exposure
Protocol: (§1) HEC-1B (Type I) and ARK-2 (Type II), platinum-insensitive EC cell lines, were used in this study. Both cell lines were cultured in DMEM (Dulbecco's Modified Eagle's Medium) media containing 10% FBS, 100 μg/mL streptomycin, 100 units/mL penicillin, and 2 mM L-glutamine. Cells were maintained in incubator at 37° C. in an atmosphere containing 5% CO2. Three thousand cells/well were seeded in triplicate in 96-well plates and cells were treated with increasing concentrations of panobinostat, GSK2141795, and carboplatin for 72 hours, respectively. CellTiter 96® Aqueous One Solution Cell Proliferation Assay was performed according to the manual to assess the half maximum inhibitory concentration (IC50). Constant ratio studies were carried out to investigate the combinatory effect of carboplatin with panobinostat and GSK2141795 in both HEC-1B and ARK-2 cell lines.

[2] = system: HEC-1B cell line; assay: MTT cell viability assay and synergy assessment, HEC-1B; assay type: cell-based; details: constant ratio, 72 hours; for combinatory effect of carboplatin with GSK2141795 (cell viability): simultaneous exposure
Protocol: as §1

Cn1ncc(Cl)c1-c1cc(C(=O)N[C@H](CN)Cc2ccc(F)c(F)c2)oc1Cl [GSK2141795]
synergism: combinatory effect of carboplatin with GSK2141795 (cell viability) [1] | combinatory effect of carboplatin with GSK2141795 (cell viability) [2]

N.N.O=C([O-])C1(C(=O)[O-])CCC1.[Pt+2] [carboplatin]
synergism: combinatory effect of carboplatin with GSK2141795 (cell viability) [1] | combinatory effect of carboplatin with panobinostat (cell viability) ([1]; ARK-2, varying concentrations) | combinatory effect of carboplatin with GSK2141795 (cell viability) [2] | combinatory effect of carboplatin with panobinostat (cell viability) ([2]; varying concentrations)
